Results: PubChem BioAssay (NCI)
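All cell lines were grown in 96-well plates and treated with compound for 48 hours. TGI: total growth inhibition.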

What was measured:
Assay in all cases: NCI anticancer screen, dose series, 48 h
MDA-MB-435 = test system: MDA-MB-435
K-562 leukemia = test system: K-562 leukemia
LOX IMVI melanoma = test system: LOX IMVI melanoma
HOP-62 NSCLC = test system: HOP-62 NSCLC
M14 melanoma = test system: M14 melanoma
SK-MEL-5 melanoma = test system: SK-MEL-5 melanoma
MCF7 breast = test system: MCF7 breast
SN12C renal = test system: SN12C renal
NCI/ADR-RES ovarian = test system: NCI/ADR-RES ovarian
SF-295 CNS = test system: SF-295 CNS
TK-10 renal = test system: TK-10 renal
COLO 205 colon = test system: COLO 205 colon
CCRF-CEM leukemia = test system: CCRF-CEM leukemia
MALME-3M melanoma = test system: MALME-3M melanoma
UACC-257 melanoma = test system: UACC-257 melanoma
HCT-15 colon = test system: HCT-15 colon
SK-MEL-28 melanoma = test system: SK-MEL-28 melanoma
RXF 393 renal = test system: RXF 393 renal
NCI-H522 lung = test system: NCI-H522 lung
SNB-75 CNS = test system: SNB-75 CNS
PC-3 prostate = test system: PC-3 prostate
BT-549 breast = test system: BT-549 breast
OVCAR-3 ovarian = test system: OVCAR-3 ovarian
SW-620 colon = test system: SW-620 colon
NCI-H23 lung = test system: NCI-H23 lung
DU-145 prostate = test system: DU-145 prostate
HCT-116 colon = test system: HCT-116 colon
KM12 colon = test system: KM12 colon
SF-539 CNS = test system: SF-539 CNS
RPMI-8226 leukemia = test system: RPMI-8226 leukemia
HL-60(TB) leukemia = test system: HL-60(TB) leukemia
CAKI-1 renal = test system: CAKI-1 renal
A498 renal = test system: A498 renal
U251 CNS = test system: U251 CNS
A549 NSCLC = test system: A549 NSCLC
SNB-19 CNS = test system: SNB-19 CNS
T-47D breast = test system: T-47D breast
UACC-62 melanoma = test system: UACC-62 melanoma
SF-268 CNS = test system: SF-268 CNS
786-0 renal = test system: 786-0 renal
MDA-N = test system: MDA-N
EKVX NSCLC = test system: EKVX NSCLC
HOP-92 NSCLC = test system: HOP-92 NSCLC
OVCAR-5 ovarian = test system: OVCAR-5 ovarian
NCI-H226 lung = test system: NCI-H226 lung
NCI-H460 lung = test system: NCI-H460 lung
MDA-MB-231 breast = test system: MDA-MB-231 breast
SK-OV-3 ovarian = test system: SK-OV-3 ovarian
HS 578T breast = test system: HS 578T breast
OVCAR-8 ovarian = test system: OVCAR-8 ovarian
IGROV1 ovarian = test system: IGROV1 ovarian
SR leukemia = test system: SR leukemia
HT29 colon = test system: HT29 colon
SK-MEL-2 melanoma = test system: SK-MEL-2 melanoma
ACHN renal = test system: ACHN renal
UO-31 renal = test system: UO-31 renal
HCC-2998 colon = test system: HCC-2998 colon
OVCAR-4 ovarian = test system: OVCAR-4 ovarian

CCC(N)(C(=O)O)C(C)C (stereo unspecified)
TGI (MDA-MB-435): > 100 µM
TGI (K-562 leukemia): > 100 µM
TGI (LOX IMVI melanoma): > 100 µM
TGI (HOP-62 NSCLC): > 100 µM
TGI (M14 melanoma): > 100 µM
TGI (SK-MEL-5 melanoma): > 100 µM
TGI (MCF7 breast): > 100 µM
TGI (SN12C renal): > 100 µM
TGI (NCI/ADR-RES ovarian): > 100 µM
TGI (SF-295 CNS): > 100 µM
TGI (TK-10 renal): > 100 µM
TGI (COLO 205 colon): > 100 µM
TGI (CCRF-CEM leukemia): > 100 µM
TGI (MALME-3M melanoma): > 100 µM
TGI (UACC-257 melanoma): > 100 µM
TGI (HCT-15 colon): > 100 µM
TGI (SK-MEL-28 melanoma): > 100 µM
TGI (RXF 393 renal): > 100 µM
TGI (NCI-H522 lung): > 100 µM
TGI (SNB-75 CNS): > 100 µM
TGI (PC-3 prostate): > 100 µM
TGI (BT-549 breast): > 100 µM
TGI (OVCAR-3 ovarian): > 100 µM
TGI (SW-620 colon): > 100 µM
TGI (NCI-H23 lung): > 100 µM
TGI (DU-145 prostate): > 100 µM
TGI (HCT-116 colon): > 100 µM
TGI (KM12 colon): > 100 µM
TGI (SF-539 CNS): > 100 µM
TGI (RPMI-8226 leukemia): > 100 µM
TGI (HL-60(TB) leukemia): > 100 µM
TGI (CAKI-1 renal): > 100 µM
TGI (A498 renal): > 100 µM
TGI (U251 CNS): > 100 µM
TGI (A549 NSCLC): > 100 µM
TGI (SNB-19 CNS): > 100 µM
TGI (T-47D breast): > 100 µM
TGI (UACC-62 melanoma): > 100 µM
TGI (SF-268 CNS): > 100 µM
TGI (786-0 renal): > 100 µM
TGI (MDA-N): > 100 µM
TGI (EKVX NSCLC): > 100 µM
TGI (HOP-92 NSCLC): > 100 µM
TGI (OVCAR-5 ovarian): > 100 µM
TGI (NCI-H226 lung): > 100 µM
TGI (NCI-H460 lung): > 100 µM
TGI (MDA-MB-231 breast): > 100 µM
TGI (SK-OV-3 ovarian): > 100 µM
TGI (HS 578T breast): > 100 µM
TGI (OVCAR-8 ovarian): > 100 µM
TGI (IGROV1 ovarian): > 100 µM
TGI (SR leukemia): > 100 µM
TGI (HT29 colon): > 100 µM
TGI (SK-MEL-2 melanoma): > 100 µM
TGI (ACHN renal): > 100 µM
TGI (UO-31 renal): > 100 µM
TGI (HCC-2998 colon): > 100 µM
TGI (OVCAR-4 ovarian): > 100 µM

Clc1ccccc1/C=C/c1ccnc2ccccc12
TGI (MDA-MB-435): 29.2 µM
TGI (K-562 leukemia): 38.6 µM
TGI (LOX IMVI melanoma): 35.2 µM
TGI (HOP-62 NSCLC): 31.9 µM
TGI (M14 melanoma): 32.1 µM
TGI (SK-MEL-5 melanoma): 28.4 µM
TGI (MCF7 breast): 26.7 µM
TGI (SN12C renal): 30.1 µM
TGI (NCI/ADR-RES ovarian): 32.9 µM
TGI (SF-295 CNS): 29.2 µM
TGI (TK-10 renal): 32.1 µM
TGI (COLO 205 colon): 26.7 µM
TGI (CCRF-CEM leukemia): 50.3 µM
TGI (MALME-3M melanoma): 35.4 µM
TGI (UACC-257 melanoma): 28.5 µM
TGI (HCT-15 colon): 28.1 µM
TGI (SK-MEL-28 melanoma): 34.9 µM
TGI (RXF 393 renal): 31 µM
TGI (NCI-H522 lung): 31.7 µM
TGI (SNB-75 CNS): 29 µM
TGI (PC-3 prostate): 30.6 µM
TGI (BT-549 breast): 29 µM
TGI (OVCAR-3 ovarian): 28 µM
TGI (SW-620 colon): 35.6 µM
TGI (NCI-H23 lung): 27.5 µM
TGI (DU-145 prostate): 29 µM
TGI (HCT-116 colon): 29.1 µM
TGI (KM12 colon): 31.6 µM
TGI (SF-539 CNS): 34.9 µM
TGI (RPMI-8226 leukemia): 36.3 µM
TGI (HL-60(TB) leukemia): 45 µM
TGI (CAKI-1 renal): 30.5 µM
TGI (A498 renal): 33.1 µM
TGI (U251 CNS): 31.4 µM
TGI (A549 NSCLC): 29.9 µM
TGI (SNB-19 CNS): 31.3 µM
TGI (T-47D breast): 30.2 µM
TGI (UACC-62 melanoma): 29 µM
TGI (SF-268 CNS): 40.2 µM
TGI (786-0 renal): 29.2 µM
TGI (MDA-N): 27.7 µM
TGI (EKVX NSCLC): 17.9 µM
TGI (HOP-92 NSCLC): 24.2 µM
TGI (OVCAR-5 ovarian): 34.5 µM
TGI (NCI-H226 lung): 33.3 µM
TGI (NCI-H460 lung): 31.7 µM
TGI (MDA-MB-231 breast): 41.9 µM
TGI (SK-OV-3 ovarian): 32.8 µM
TGI (HS 578T breast): 53 µM
TGI (OVCAR-8 ovarian): 36.3 µM
TGI (IGROV1 ovarian): 32.7 µM
TGI (SR leukemia): 46.8 µM
TGI (HT29 colon): 29.8 µM
TGI (SK-MEL-2 melanoma): 34.2 µM
TGI (ACHN renal): 30.1 µM
TGI (UO-31 renal): 31 µM
TGI (HCC-2998 colon): 32.2 µM
TGI (OVCAR-4 ovarian): 31.3 µM
